Results reported in patent publication US9556165B2 (priority 2012, dated 2017).
In brackets after ≈: the same amount, converted by molar mass. Where two headings read alike, the source gives them in different places.

Key:
Type in all cases: cell-based
E. coli ATCC25922 = experiment: MIC determination, broth microdilution (CLSI); settings: Escherichia coli, ATCC25922, strain 1
K. pneumoniae 60 = experiment: MIC determination, broth microdilution (CLSI); settings: Klebsiella pneumoniae, 60, strain 2
E. cloacae 34654 = experiment: MIC determination, broth microdilution (CLSI); settings: Enterobacter cloacae, 34654, strain 3
C. freundii K21/3034 = experiment: MIC determination, broth microdilution (CLSI); settings: Citrobacter freundii, K21/3034, strain 4
M. morganii 126/3048 = experiment: MIC determination, broth microdilution (CLSI); settings: Morganella morganii, 126/3048, strain 5
P. aeruginosa PAO1 = experiment: MIC determination, broth microdilution (CLSI); settings: Pseudomonas aeruginosa, PAO1, strain 6
[1] = tested on: P. aeruginosa 2297 (AmpC wt); experiment: MIC determination, broth microdilution (CLSI); settings: Pseudomonas aeruginosa, strain 7
[2] = tested on: P. aeruginosa 2297-con (AmpC derepressed); experiment: MIC determination, broth microdilution (CLSI); settings: Pseudomonas aeruginosa, read-out: strain 8 MIC, strain 8
A. baumannii ATCC15308 = experiment: MIC determination, broth microdilution (CLSI); settings: Acinetobacter baumannii, ATCC15308, strain 9
S. aureus 133 = experiment: MIC determination, broth microdilution (CLSI)
H. influenzae ATCC 49247 = experiment: MIC determination, broth microdilution (CLSI); settings: Haemophilus influenzae, ATCC49247, strain 12; broth microdilution; read-out: MIC strain 12 (H. influenzae ATCC 49247)
S. pneumoniae 113 = experiment: MIC determination, broth microdilution (CLSI); settings: Streptococcus pneumoniae, 113, strain 13; broth microdilution; read-out: MIC strain 13 (S. pneumoniae 113)
B. fragilis 6688 = experiment: MIC determination, broth microdilution (CLSI); settings: Bacteroides fragilis, 6688, strain 15; broth microdilution; read-out: MIC strain 15 (B. fragilis 6688)
E. coli J62 = experiment: MIC determination, broth microdilution (CLSI); settings: Escherichia coli, J62, strain 17; broth microdilution; read-out: MIC strain 17 (E. coli J62)
E. coli J62-TEM-3 = experiment: MIC determination, broth microdilution (CLSI); settings: Escherichia coli, J62TEM3, read-out: MIC strain 18 (E. coli J62-TEM-3), strain 18; broth microdilution
Bacteria = experiment: MIC determination in combination with β-lactamase inhibitors (constant 4 μg/mL)
S. maltophilia ICB7569 = experiment: MIC determination, broth microdilution (CLSI); settings: Stenotrophomonas maltophilia, ICB7569, strain 10
[3] = Staphylococcus aureus, 133, strain 11, read-out: strain 11 MIC
[4] = Staphylococcus aureus, 133, strain 14, broth microdilution, read-out: MIC strain 14 (S. aureus 133)

Row | SMILES | MIC (E. coli ATCC25922) | MIC (K. pneumoniae 60) | MIC (E. cloacae 34654) | MIC (C. freundii K21/3034) | MIC (M. morganii 126/3048) | MIC (P. aeruginosa PAO1) | MIC [1] | MIC [2] | MIC (A. baumannii ATCC15308) | MIC (S. aureus 133; [3]) | MIC (S. aureus 133; [4]) | MIC (H. influenzae ATCC 49247) | MIC (S. pneumoniae 113) | MIC (B. fragilis 6688) | MIC (E. coli J62) | MIC (E. coli J62-TEM-3) | MIC strain 19 (E. coli J62-TEM-3 + 4 μg/mL clavulanic acid) (Bacteria) | MIC strain 20 (E. coli J62-TEM-3 + 4 μg/mL sulbactam) (Bacteria) | MIC strain 21 (E. coli J62-TEM-3 + 4 μg/mL tazobactam) (Bacteria) | MIC (S. maltophilia ICB7569)
1 | CNC(=N)c1ccc(OCCO/N=C(\C(=O)N[C@@H]2C(=O)N(S(=O)(=O)O)[C@H]2C)c2csc(N)n2)cc1 [Example 68, (2S,3S)-3-{[(2Z)-2-(2-Amino-1,3-thiazol-4-yl)-2-({2-[4-(N-methylcarbamimidoyl)-phenoxy]ethoxy}imino)acetyl]amino}-2-methyl-4-oxoazetidine-1-sulfonic acid] | 0.125 µg/mL (≈ 0.238 µM) | 0.25 µg/mL (≈ 0.476 µM) | 0.125 µg/mL (≈ 0.238 µM) | 0.125 µg/mL (≈ 0.238 µM) | 0.125 µg/mL (≈ 0.238 µM) | 2 µg/mL (≈ 3.81 µM) | 8 µg/mL (≈ 15.2 µM) | 32 µg/mL (≈ 60.9 µM) | 2 µg/mL (≈ 3.81 µM) | ≤ 0.063 µg/mL | 2 µg/mL (≈ 3.81 µM) | 0.125 µg/mL (≈ 0.238 µM) | 0.5 µg/mL (≈ 0.951 µM) | 8 µg/mL (≈ 15.2 µM) | 0.25 µg/mL (≈ 0.476 µM) | 16 µg/mL (≈ 30.4 µM) | 0.125 µg/mL | 0.25 µg/mL | 0.25 µg/mL | 
2 | C[C@H]1[C@H](NC(=O)/C(=N\OCCOc2cc(C(=N)N)nn2C)c2csc(N)n2)C(=O)N1S(=O)(=O)O [Example 71, (2S,3S)-3-{[(2Z)-2-(2-Amino-1,3-thiazol-4-yl)-2-({2-[(3-carbamimidoyl-1-methyl-1H-pyrazol-5-yl)oxy]ethoxy}imino)acetyl]amino}-2-methyl-4-oxoazetidine-1-sulfonic acid] | 2 µg/mL (≈ 3.88 µM) | 1 µg/mL (≈ 1.94 µM) | 4 µg/mL (≈ 7.76 µM) | 1 µg/mL (≈ 1.94 µM) | 1 µg/mL (≈ 1.94 µM) | 16 µg/mL (≈ 31 µM) | 32 µg/mL (≈ 62.1 µM) |  | 4 µg/mL (≈ 7.76 µM) | 0.25 µg/mL (≈ 0.485 µM) |  | 1 µg/mL (≈ 1.94 µM) | 0.5 µg/mL (≈ 0.97 µM) | 8 µg/mL (≈ 15.5 µM) | 8 µg/mL (≈ 15.5 µM) | 32 µg/mL (≈ 62.1 µM) | 2 µg/mL | 4 µg/mL | 4 µg/mL | 4 µg/mL (≈ 7.76 µM)
3 | CC1(C)[C@H](NC(=O)/C(=N\OC(COc2ccc(C(=N)N)cc2)C(N)=O)c2csc(N)n2)C(=O)N1OS(=O)(=O)O (stereo partly drawn) [Example 75, 2-({[(1Z)-1-(2-Amino-1,3-thiazol-4-yl)-2-{[(3S)-2,2-dimethyl-4-oxo-1-(sulfooxy)azetidin-3-yl]amino}-2-oxoethylidene]amino}oxy)-3-(4-carbamimidoylphenoxy)propanamide] | 0.25 µg/mL (≈ 0.428 µM) | 0.5 µg/mL (≈ 0.855 µM) | 0.5 µg/mL (≈ 0.855 µM) | 0.125 µg/mL (≈ 0.214 µM) | 0.25 µg/mL (≈ 0.428 µM) | 8 µg/mL (≈ 13.7 µM) | 16 µg/mL (≈ 27.4 µM) | 8 µg/mL (≈ 13.7 µM) | 2 µg/mL (≈ 3.42 µM) |  | 16 µg/mL (≈ 27.4 µM) |  |  |  | 0.5 µg/mL (≈ 0.855 µM) | 1 µg/mL (≈ 1.71 µM) | 0.25 µg/mL | 0.5 µg/mL | 0.5 µg/mL | 4 µg/mL (≈ 6.84 µM)
4 | CC1(C)[C@H](NC(=O)/C(=N\OCCOc2ccc(C(=N)N3CCNCC3)cc2)c2csc(N)n2)C(=O)N1OS(=O)(=O)O [Example 80, (2Z)-2-(2-Amino-1,3-thiazol-4-yl)-N-[(3S)-2,2-dimethyl-4-oxo-1-(sulfooxy)azetidin-3-yl]-2-[(2-{4-[imino(piperazin-1-yl)methyl]phenoxy}ethoxy)imino]ethanamide] | 0.25 µg/mL (≈ 0.409 µM) | 0.5 µg/mL (≈ 0.819 µM) | 1 µg/mL (≈ 1.64 µM) | 0.25 µg/mL (≈ 0.409 µM) |  | 16 µg/mL (≈ 26.2 µM) | 16 µg/mL (≈ 26.2 µM) | 8 µg/mL (≈ 13.1 µM) | 2 µg/mL (≈ 3.28 µM) |  | 4 µg/mL (≈ 6.55 µM) |  |  |  | 0.5 µg/mL (≈ 0.819 µM) | 16 µg/mL (≈ 26.2 µM) | 0.5 µg/mL | 0.5 µg/mL | 0.5 µg/mL | 32 µg/mL (≈ 52.4 µM)
5 | CC1(C)[C@H](NC(=O)/C(=N\O[C@@H](COc2ccc(C(=N)N[C@H]3CCNC3)cc2)C(=O)O)c2csc(N)n2)C(=O)N1OS(=O)(=O)O [Example 93] | ≤ 0.063 µg/mL | 0.125 µg/mL (≈ 0.191 µM) | 0.125 µg/mL (≈ 0.191 µM) | ≤ 0.063 µg/mL |  | 1 µg/mL (≈ 1.53 µM) | 1 µg/mL (≈ 1.53 µM) | 1 µg/mL (≈ 1.53 µM) | 1 µg/mL (≈ 1.53 µM) |  | 32 µg/mL (≈ 48.9 µM) |  |  |  | 0.125 µg/mL (≈ 0.191 µM) | 4 µg/mL (≈ 6.11 µM) | 0.125 µg/mL | 0.125 µg/mL | 0.125 µg/mL | 4 µg/mL (≈ 6.11 µM)
